The target of assay [1] is Cruzipain (Trypanosoma cruzi) (UniProt P25779). Put plainly: Second order rate constant for inactivation of cruzain of Trypanosoma cruzi.
In assay [2] the test system is Trypanosoma cruzi. In words: Effect on survival time of against […] macrophages infected with Trypanosoma cruzi trypomastigotes at a concentration of 10 uM. It counts as functional.
Assay [3] relates to Trypanosoma cruzi. In words: Effect on survival time of against […] macrophages infected with Trypanosoma cruzi trypomastigotes at a concentration of 30 uM. It counts as functional, organism-based.

The values that follow come from ChEMBL document CHEMBL1133816, “Potent second generation vinyl sulfonamide inhibitors of the trypanosomal cysteine protease cruzain” (2001).

The structures appear in SMILES notation. A value given as a limit tells only on which side of the number the result lay.

Cruzipain (Trypanosoma cruzi), sequence (P25779 123-467 limits assumed): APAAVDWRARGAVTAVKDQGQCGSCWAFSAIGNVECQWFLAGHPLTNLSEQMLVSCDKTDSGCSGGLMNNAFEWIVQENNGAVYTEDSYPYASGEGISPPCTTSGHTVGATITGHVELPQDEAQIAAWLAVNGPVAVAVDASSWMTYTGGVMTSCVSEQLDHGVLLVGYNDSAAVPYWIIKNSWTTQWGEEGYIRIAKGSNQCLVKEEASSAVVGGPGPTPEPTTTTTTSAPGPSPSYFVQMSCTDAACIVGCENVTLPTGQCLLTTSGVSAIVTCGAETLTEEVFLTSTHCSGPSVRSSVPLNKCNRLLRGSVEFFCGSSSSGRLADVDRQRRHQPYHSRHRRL

Regarding `O=C(N[C@H](/C=C/S(=O)(=O)Cc1ccccc1)CCc1ccccc1)[C@H](Cc1ccccc1)NC(=O)N1CCOCC1`, in assay [1], the K ass was 1.67e+06 M⁻¹ s⁻¹. Besides, the Survival time with Trypanosoma cruzi [2] was 20 days.

`CN1CCN(C(=O)N[C@@H](Cc2ccccc2)C(=O)N[C@H](/C=C/S(=O)(=O)Nc2ccccc2)CCc2ccccc2)CC1` registered a K ass in assay [1] of 1.26e+06 M⁻¹ s⁻¹. Moreover, in the assay on Trypanosoma cruzi [2], the Survival time is 9 days.

On to `CN1CCN(C(=O)N[C@@H](Cc2ccccc2)C(=O)N[C@H](/C=C/S(=O)(=O)Oc2ccccc2)CCc2ccccc2)CC1`, for which the K ass in assay [1] turned out to be 720000 M⁻¹ s⁻¹. The Survival time in the assay on Trypanosoma cruzi [2] is 9 days.

Compound `O=C(N[C@H](/C=C/S(=O)(=O)c1ccccc1)CCc1ccccc1)[C@H](Cc1ccccc1)NC(=O)N1CCOCC1` had a K ass in assay [1] of 181000 M⁻¹ s⁻¹. The compound also returned a Survival time in the assay on Trypanosoma cruzi [2] of over 24 days.

In assay [1], `O=C(N[C@H](/C=C/S(=O)(=O)NOCc1ccccc1)CCc1ccccc1)[C@H](Cc1ccccc1)NC(=O)N1CCOCC1` returned a K ass of 2.27e+06 M⁻¹ s⁻¹. The compound further showed a Survival time in the assay on Trypanosoma cruzi [2] of over 24 days.

In assay [1], `O=C(N[C@H](/C=C/S(=O)(=O)Oc1ccccc1)CCc1ccccc1)[C@H](Cc1ccccc1)NC(=O)N1CCOCC1` returned a K ass of 1.02e+07 M⁻¹ s⁻¹. Moreover, in the assay with Trypanosoma cruzi [2], the Survival time entry was “Toxic”.

For the compound `O=C(N[C@@H](Cc1ccccc1)C(=O)N[C@H](/C=C/S(=O)(=O)Nc1ccccc1)CCc1ccccc1)OCc1ccccc1`, the K ass in assay [1] worked out at 242000 M⁻¹ s⁻¹. In addition, the Survival time with Trypanosoma cruzi [2] was 6 days.

Take `O=C(N[C@@H](Cc1ccccc1)C(=O)N[C@H](/C=C/S(=O)(=O)Oc1ccccc1)CCc1ccccc1)OCc1ccccc1`: the K ass in assay [1] was 1.68e+07 M⁻¹ s⁻¹. The Survival time entry with Trypanosoma cruzi [3] is “Toxic”.

Compound `CN1CCN(C(=O)N[C@@H](Cc2ccccc2)C(=O)N[C@H](/C=C/S(=O)(=O)NOCc2ccccc2)CCc2ccccc2)CC1` registered a K ass in assay [1] of 6.48e+06 M⁻¹ s⁻¹. In addition, the Survival time in the assay on Trypanosoma cruzi [2] is over 24 days.

As to `O=C(N[C@H](/C=C/S(=O)(=O)Nc1ccccc1)CCc1ccccc1)[C@H](Cc1ccccc1)NC(=O)N1CCOCC1`, in assay [1], the K ass is 4.92e+06 M⁻¹ s⁻¹. For the same compound, the Survival time in the assay on Trypanosoma cruzi [2] is 9 days.

In the case of `CN1CCN(C(=O)N[C@@H](Cc2ccccc2)C(=O)N[C@H](/C=C/S(=O)(=O)Cc2ccccc2)CCc2ccccc2)CC1`, the K ass in assay [1] was found to be 3.85e+06 M⁻¹ s⁻¹. Also, the Survival time with Trypanosoma cruzi [2] amounted to 13 days.

`CN1CCN(C(=O)N[C@@H](Cc2ccccc2)C(=O)N[C@H](/C=C/S(=O)(=O)c2ccccc2)CCc2ccccc2)CC1` [K-777] returned a K ass in assay [1] of 420000 M⁻¹ s⁻¹. Also, in the assay on Trypanosoma cruzi [2], the Survival time was over 24 days.

In assay [1], `O=C(N[C@@H](Cc1ccccc1)C(=O)N[C@H](/C=C/S(=O)(=O)Cc1ccccc1)CCc1ccccc1)OCc1ccccc1` had a K ass of 1.4e+06 M⁻¹ s⁻¹. In the assay on Trypanosoma cruzi [2], this compound came in with a Survival time of 6 days.
